Experimental findings from patent US20060217418A1, “Substituted alkyl amido piperidines” (priority 2001, published 2006) are described below.

The target of the experiment is T1, rat MCH1 receptor (Rattus norvegicus, UniProt P97639).
T1 construct: operatively linked to DNA encoding the rat MCH1 receptor so as to permit expression thereof; expressed in transfected cells; host or cells: Human embryonic kidney Peak rapid 293 (Peakr293) cells, transient calcium phosphate transfection, membranes
T1 sequence (P97639 whole entry): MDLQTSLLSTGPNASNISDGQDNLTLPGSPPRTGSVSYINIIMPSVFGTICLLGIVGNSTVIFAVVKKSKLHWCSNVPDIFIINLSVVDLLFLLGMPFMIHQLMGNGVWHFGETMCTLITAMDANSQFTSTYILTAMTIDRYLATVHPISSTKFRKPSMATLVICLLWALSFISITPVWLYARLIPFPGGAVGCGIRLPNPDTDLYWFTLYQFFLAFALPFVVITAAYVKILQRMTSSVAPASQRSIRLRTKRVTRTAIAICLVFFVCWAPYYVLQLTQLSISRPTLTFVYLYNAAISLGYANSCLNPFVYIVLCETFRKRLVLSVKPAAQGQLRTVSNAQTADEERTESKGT
The experiment can be described thus: Radioligand binding assay at cloned rat MCH1 receptor ([3H]Compound A). Conditions: cloned rat MCH1, Peakr293 cell membranes, 0.08 nM [3H]Compound A, 25° C., 90 minutes; read-out: Ki(MCH-1).
The term Ki denotes a measure of affinity in units of concentration, obtained from inhibition or displacement. On to `CC(C)C(=O)Nc1cccc(C2CCN(CCCNC(=O)C(C)(C)c3ccc(Cl)cc3)CC2)n1` [Example 88], for which the Ki came to 23 nM.
Regarding `CC(C)C(=O)Nc1cccc(C2CCN(CCCNC(=O)C(F)(F)c3ccccc3)CC2)c1` [Example 125, N-{3-[1-(3{[DIFLUORO(PHENYL)ACETYL]AMINO}PROPYL)-4-PIPERIDINYL] PHENYL}2-METHYLPROPANAMIDE], the Ki turned out to be 124 nM.
Under `O=C(Nc1cccc(C2CCN(CCCNC(=O)C3(c4ccc(Cl)cc4Cl)CC3)CC2)c1)C1CC1` [Example 117, N-[3-(4-{3-[(CYCLOPROPYLCARBONYL)AMINO]PHENYL}-1-PIPERIDINYL) PROPYL]-1-(2,4-DICHLOROPHENYL)CYCLOPROPANECARBOXAMIDE] stands 17.9 nM; under `CC(C)C(=O)Nc1ccc(F)c(C2CCN(CCCNC(=O)C3(c4ccc(F)cc4Cl)CCCCC3)CC2)c1` [Example 133, 1-(2-CHLORO-4-FLUOROPHENYL)-N-(3-{4-[2-FLUORO-5-(ISOBUTYRYLAMINO) PHENYL]-1-PIPERIDINYL}PROPYL)CYCLO HEXANECARBOXAMIDE], 5.9 nM.
Consider `CC(C)C(=O)Nc1cccc(C2CCN(CCCNC(=O)C3(c4ccc(F)cc4)CCCC3)CC2)n1` [Example 66, 1-(4-FLUOROPHENYL)-N-(3-{4-[6-(ISOBUTYRYLAMINO)-2-pyridinyl]-piperidinyl}propyl) cyclopentanecarboxamide], for which the Ki came to 24.4 nM.
For `Cc1ccc(NC(=O)C(C)C)cc1C1CCN(CCCNC(=O)C2(c3ccc(Cl)cc3)CC2)CC1` [Example 89], the Ki was found to be 10.8 nM.
With `CC[C@@H](C(=O)NCCCN1CCC(c2cc(NC(=O)C(C)C)ccc2C)CC1)c1ccccc1` [Example 162, (2R)-N-(3-{4-[5-(isobutyrylamino)-2-methylphenyl]-1-piperidinyl}propyl)-2-phenylbutan amide], the Ki worked out at 8.6 nM.
For the compound `CC(=O)Nc1cccc(C2CCN(CCCNC(=O)C(C)(c3ccccc3)c3ccccc3)CC2)c1` [Example 103, N-(3-{4-[3-(ACETYLAMINO)PHENYL]-1-PIPERIDINYL}PROPYL)-2,2-DIPHENYL PROPANAMIDE], the Ki amounted to 8 nM.
Take `CCCC(=O)Nc1ccc(F)c(C2CCN(CCCNC(=O)C(c3ccccc3)c3ccccc3)CC2)c1` [Example 25]: the Ki stood at 2.1 nM.
For `CC(C)C(=O)Nc1cccc(C2CCN(CCCNC(=O)C(C)c3ccc(Cl)cc3)CC2)n1` (stereo not drawn) [Example 90, 2-(4-CHLOROPHENYL)-N-(3-{4-[6-(ISOBUTYRYLAMINO)-2-PYRIDINYL]-1-PIPERIDINYL} PROPYL)PROPANAMIDE], the inhibition constant (Ki) came to 52.2 nM.
Under `CCCC(=O)Nc1cc(C2CCN(CCCNC(=O)C(c3ccc(C)cc3)c3ccc(C)cc3)CC2)ccc1F` [Example 109] stands 4.7 nM.
Regarding `CCCC(=O)Nc1cc(C2CCN(CCCNC(=O)C(C)(C)c3ccc(Cl)cc3)CC2)ccc1F` [Example 110], the Ki is 50.4 nM.
As to `CC(=O)Nc1cccc(C2CCN(CCCNC(=O)C3(c4ccc(Cl)cc4)CCCCC3)CC2)c1` [Example 75, N-(3-{4-[3-(ACETYLAMINO)PHENYL]-1-PIPERIDINYL}PROPYL)-1-(4-CHLOROPHENYL) CYCLOHEXANECARBOXAMIDE], the Ki is 4.7 nM.
As to `CC(C(=O)NCCCN1CCC(c2cccc(NC(=O)C3CC3)c2)CC1)(c1ccccc1)c1ccccc1` [Example 123, N-[3-(1-{3-[(2,2-DIPHENYLPROPANOYL)AMINO]PROPYL}-4-PIPERIDINYL)PHENYL] CYCLOPROPANECARBOXAMIDE], the Ki came out at 2.8 nM.
The result for `CCCC(=O)Nc1cccc(C2CCN(CCCNC(=O)C(c3ccc(Cl)cc3)c3ccc(Cl)cc3)CC2)c1` [Example 53, N-{3-[1-(3-{[2,2-BIS(4-CHLOROPHENYL)ACETYL]AMINO}PROPYL)-4-PIPERIDINYL] PHENYL}BUTANAMIDE] reads 1.1 nM.
Under `CCCC(=O)Nc1cc(C2CCN(CCCNC(=O)C(c3ccccc3)c3ccccc3)CC2)ccc1F` [Example 65] stands 4.9 nM.
Under `CCC(=O)Nc1cccc(C2CCN(CCCNC(=O)C(C)c3ccc(F)cc3)CC2)c1` (stereo not drawn) [Example 64, 2-(4-FLUOROPHENYL)-N-(3-{4-[3-PROPIONYLAMINO)PHENYL]-1-PIPERIDINYL} PROPYL) PROPANAMIDE] stands 70.7 nM; under `CC(C)C(=O)Nc1cccc(C2CCN(CCCNC(=O)C3(c4ccc(F)cc4Cl)CCCCC3)CC2)c1` [Example 138], 10.2 nM.
Turning to `CCCC(=O)Nc1cccc(C2CCN(CCCNC(=O)C3(c4ccc(Cl)cc4)CC3)CC2)c1` [Example 69, N-(3-{4-[3-(butyrylamino)phenyl]-1-piperidinyl}propyl)-1-(4-chlorophenyl)cyclopropane carboxamide], the Ki was 39.9 nM.
Under `Cc1ccc(C(C(=O)NCCCN2CCC(c3cc(NC(=O)C(C)C)ccc3F)CC2)c2ccc(C)cc2)cc1` [Example 132] stands 0.6 nM.
Under `Cc1ccc(NC(=O)C(C)C)cc1C1CCN(CCCNC(=O)[C@H](C)c2ccc(Cl)cc2)CC1` [Example 167] stands 18.7 nM; under `CCCC(=O)Nc1cccc(C2CCN(CCCNC(=O)C3(c4ccc(Cl)cc4)CCC3)CC2)c1` [Example 106, N-(3-{4-[3-(BUTYRYLAMINO)PHENYL]-1-PIPERIDINYL}PROPYL)-1-(4-CHLOROPHENYL) CYCLOBUTANECARBOXAMIDE], 19 nM; under `Cc1ccc(NC(=O)C(C)C)cc1C1CCN(CCCNC(=O)[C@@H](C)c2ccc(Cl)cc2)CC1` [Example 166, (2S)-2-(4-chlorophenyl)-N-(3-{4-[5-(isobutyrylamino)-2-methylphenyl]-1-piperidinyl}propyl) propanamide], 5.7 nM.
The result for `CC(C)C(=O)Nc1cncc(C2CCN(CCCNC(=O)C(c3ccccc3)c3ccccc3)CC2)c1` [Example 170, N-[5-(1-{3-[(diphenylacetyl)amino]propyl}-4-piperidinyl)-3-pyridinyl]-2-methyl propanamide] reads 19.1 nM; that for `CC(C)C(=O)Nc1cccc(C2CCN(CCCNC(=O)C3(c4ccc(Cl)cc4)CC3)CC2)n1` [Example 76, 1-(4-CHLOROPHENYL)-N-(3-{4-[6-(ISOBUTYRYLAMINO)-2-PYRIDINYL]-1-PIPERIDINYL} PROPYL)CYCLOPROPANECARBOXAMIDE], 48 nM.
In the case of `CC(C)C(=O)Nc1cccc(C2CCN(CCCNC(=O)C(c3ccc(Cl)cc3)c3ccc(Cl)cc3)CC2)c1` [Example 2, N-{3-[1-(3-{[BIS(4-CHLOROPHENYL)ACETYL]AMINO}PROPYL)-4-PIPERIDINYL] PHENYL}-2-METHYLPROPANAMIDE], the Ki worked out at 2.4 nM.
Under `CC(C)CC(=O)Nc1cccc(C2CCN(CCCNC(=O)C(c3ccccc3)c3ccccc3)CC2)c1` [Example 13] stands 11.8 nM.
Regarding `CC(C)(C(=O)NCCCN1CCC(c2cccc(NC(=O)C3CC3)c2)CC1)c1ccc(Cl)cc1` [Example 115], the Ki worked out at 6.9 nM.
The result for `CC(C)C(=O)Nc1ccc(F)c(C2CCN(CCCNC(=O)C3(c4ccc(Cl)cc4)CCCCC3)CC2)c1` [Example 130] reads 2.6 nM; that for `Cc1ccc(NC(=O)C(C)C)cc1C1CCN(CCCNC(=O)Cc2ccc(F)cc2)CC1` [Example 175, N-{3-[1-(3-{[(4-fluorophenyl)acetyl]amino}propyl)-4-piperidinyl]-4-methylphenyl}-2-methyl propanamide], 24.7 nM; that for `CC(C)C(=O)Nc1cccc(C2CCN(CCCNC(=O)C(C)c3ccc(F)cc3)CC2)c1` (stereo not drawn) [Example 42, 2-(4-FLUOROPHENYL)-N-(3-{4-[3-(ISOBUTYRYLAMINO)PHENYL]-1-PIPERIDINYL} PROPYL)PROPANAMIDE], 34.3 nM.
Under `CC(C)C(=O)Nc1cccc(C2CCN(CCCNC(=O)C3(c4ccc(Cl)cc4)CCCCC3)CC2)n1` [Example 67, 1-(4-CHLOROPHENYL)-N-(3-{4-[6-(ISOBUTYRYLAMINO)-2-PYRIDINYL]-1-PIPERIDINYL} PROPYL)CYCLOHEXANECARBOXAMIDE] stands 9.9 nM; under `CC(C)C(=O)Nc1cccc(C2CCN(CCCNC(=O)C3(c4ccc(Cl)cc4)CCCC3)CC2)c1` [Example 31, 1-(4-CHLOROPHENYL)-N-(3-{4-[3-(ISOBUTYRYLAMINO)PHENYL]-1-PIPERIDINYL} PROPYL)CYCLOPENTANECARBOXAMIDE], 8.2 nM.
Under `Cc1ccc(NC(=O)C(C)C)cc1C1CCN(CCCNC(=O)[C@H](C)c2ccccc2)CC1` [Example 164, 2-methyl-N-{4-methyl-3-[1-(3-{[(2R)-2-phenylpropanoyl]amino}propyl)-4-piperidinyl]phenyl} propanamide] stands 14.6 nM; under `Cc1ccc(NC(=O)C(C)C)cc1C1CCN(CCCNC(=O)C2(c3ccc(F)cc3Cl)CCCC2)CC1` [Example 135, 1-(2-CHLORO-4-FLUOROPHENYL)-N-(3-{4-[5-(ISOBUTYRYLAMINO)-2-METHYL PHENYL]-1-PIPERIDINYL}PROPYL)CYCLOPENTANECARBOXAMIDE], 5.2 nM; under `O=C(Nc1cccc(C2CCN(CCCNC(=O)C3(c4ccc(Cl)cc4)CC3)CC2)c1)C1CC1` [Example 118], 13.9 nM.
For `CC(=O)Nc1cccc(C2CCN(CCCNC(=O)C(C)c3ccc(Cl)cc3)CC2)c1` (stereo not drawn) [Example 95, N-(3-{4-[3-(ACETYLAMINO)PHENYL]-1-PIPERIDINYL}PROPYL)-2-(4-CHLOROPHENYL) PROPANAMIDE], the inhibition constant Ki turned out to be 23.5 nM.
With `CCC(=O)Nc1cccc(C2CCN(CCCNC(=O)C3(c4ccc(F)cc4)CCCCC3)CC2)c1` [Example 61, 1-(4-FLUOROPHENYL)-N-(3-{4-[3-(PROPIONYLAMINO)PHENYL]-1-PIPERIDINYL} PROPYL)CYCLOHEXANECARBOXAMIDE], the Ki was determined as 63.3 nM.
Under `Cc1ccc(NC(=O)C(C)C)cc1C1CCN(CCCNC(=O)C(C)(c2ccccc2)c2ccccc2)CC1` [Example 96] stands 2.6 nM; under `CCCC(=O)Nc1cccc(C2CCN(CCCNC(=O)C(C)(C)c3ccc(Cl)cc3)CC2)c1` [Example 80], 7.7 nM.
Consider `CC(C)C(=O)Nc1ccc(F)c(C2CCN(CCCNC(=O)C3(c4ccc(F)cc4)CCCCC3)CC2)c1` [Example 131], for which the inhibition constant (Ki) turned out to be 4 nM.
As to `CCC(=O)Nc1cccc(C2CCN(CCCNC(=O)C3(c4ccc(Cl)cc4)CC3)CC2)c1` [Example 63, 1-(4-CHLOROPHENYL-N-(3-{4-[3-(PROPIONYLAMINO)PHENYL]-1-PIPERIDINYL} PROPYL)CYCLOPROPANECARBOXAMIDE], the Ki came to 150 nM.
